From patent US8574829B2, “Methods of treating cancer with phenformin” (The Trustees Of The University Of Pennsylvania, priority 2009, dated 2013)
“Also recorded” adds a separate entry of the source.

Legend:
K562 cells [1] = experiment: K562 cell viability by propidium iodide exclusion over four days; format: cell-based; details: single dose, 1 mM phenformin, 750 nM imatinib, 25 nM rapamycin, FIG. 1B
Experimental: (§1) K562 cell line was obtained from ATCC.
K562 cells were treated with a single dose of imatinib, rapamycin, or phenformin, and assessed for cell number (Coulter Counter) and cell viability (by propidium iodide exclusion) over four days.

STAT5 = experiment: Western blot of phospho-STAT5 (tyr694/699) in K562 cells 24 hours after inhibitor treatment; format: cell-based; details: relative to untreated, FIG. 2
Text: (§2) Western Blot Analysis. Cells were lysed in radioimmunoprecipitation (RIPA) buffer containing protease inhibitors (Complete Mini, Roche Applied Science), and protease inihibitors cocktails I and II (Sigma). BCA Protein Assay kit (Pierce Biotechnology) was used to assess and standardize protein concentrations. Proteins were resolved using a 4-12% NuPage Bis-Tris polyacrylamide gels (Invitrogen), and transferred to nitrocellulose membranes. Membranes were blocked using 5% nonfat dry skim milk and 0.1% Tween. […] Bands were subsequently detected using horseradish-peroxidase conjugated anti-mouse or anti-rabbit secondary antibodies (GE Healthcare Industries) and enhanced chemiluminescence detection kit (Amersham).
(§3) To characterize the pattern of signaling pathway activation in inhibitor-treated cells, the activity of the Akt and Jak-STAT pathways were examined, two pathways known to be activated by the bcr-abl oncogenic signaling. Proteins were isolated from cells, 24 hours after inhibitor treatment, and assessed for levels of phospho-Akt ([…]) and phospho-STAT5 (tyr694/699), as well as total levels of these proteins as loading controls.

Akt = experiment: Western blot of phospho-Akt in K562 cells 24 hours after inhibitor treatment; format: cell-based; details: relative to untreated, FIG. 2
Text: as §2, §3

K562 cells [2] = experiment: Aerobic glycolysis: total glucose consumption and lactate production of K562 cultures over four days (Nova Bioprofile Flex Analyzer); format: cell-based; details: for glucose consumption: FIG. 5A; for lactate production: FIG. 5B
Experimental: (§4) Daily cell culture supernatants were collected, and analyzed using the Nova Biomedical Bioprofile Flex Analyzer, which determined glucose, glutamine, lactate, and ammonia levels. For the HIF-1 induction experiments, K562 cells were incubated at 4 million cells/ml in a plastic tube (Falcon 35-2059) with rubber stopper (Kontes Glass Company #882310), with constant stirring at 37 C. At indicated time points, tubes were spun to pellet cells, and the glucose, lactate and pO2 content of supernatant was assessed by syringe sampling through an air-tight rubber stopper. After supernatant sampling, cells were collected and lysates were prepared as described above.
To investigate the metabolic effects of phenformin on K562 cells, we compared the glycolytic activity of the cells in the drug-treated cultures by quantifying total glucose consumption and lactate production over four days (FIGS. 5A and 5B, respectively), by collecting and analyzing daily cell culture supernatants using a Nova Biomedical Bioprofile Flex Analyzer. […] Phenformin was therefore novel in its ability to dissociate aerobic glycolysis from cell proliferation.

K562 cells [3] = experiment: K562 viability under medium depletion of glucose or glutamine (propidium iodide exclusion, FACS); format: cell-based; details: K562, 4 days; FIG. 7
Experimental: as §1
The viability of K562 cells after variable inhibitor treatment, and selective medium depletion of glucose or glutamine, is shown. Cell viability was determined by propidium iodide exclusion of 10,000 cells (via FACS analysis), taken from each culture each day of experiment.

K562 cells [4] = experiment: Glutamine uptake of K562 cultures over four days; format: cell-based; details: FIG. 8
Experimental: as §4
To further investigate what functional role the TCA cycle might play in K562 proliferation, we compared the ability of phenformin-treated cells to metabolize glutamine. In tumor cells, glutaminolysis is important in maintaining TCA cycle activity, as it serves to provide an additional source of TCA cycle intermediates (a-ketoglutarate) to the mitochondria.

K562 cells [5] = experiment: K562 proliferation, cell number by Coulter Counter over four days after a single dose of inhibitor; details: FIG. 1A; for effect on K562 proliferation (cell number): 25 nM rapamycin, four days
K562 cells [6] = experiment: Comparison of phenformin and metformin: total K562 cell number after three days over a range of biguanide concentrations; format: cell-based; details: three days after a single dose, FIG. 3; for inhibition of K562 proliferation: started at 200,000 cells/ml
Text: Direct comparison of metformin and phenformin activity, over a range of biguanide concentrations, was accomplished by comparing total K562 cell number after three days of exposure to a single dose of phenformin or metformin, as indicated (FIG. 3). Cell cultures were started at a density of 200,000 cells/ml.

[7] = treatment of diabetes; background statement; cited from earlier work
[8] = test system: Bax-Bak deficient lymphocytes; experiment: Proliferation of Bax-Bak deficient lymphocytes with IL-3 stimulation, total cell number after three days; format: cell-based; details: three days after a single dose, started at 200,000 cells/ml, FIG. 4
Experimental: The ability of phenformin to inhibit the proliferation of Bax-Bak deficient lymphocytes, in the presence of IL-3 stimulation, was assessed, and compared to the activity of metformin. Direct comparison of metformin and phenformin activity, over a range of biguanide concentrations, was accomplished by comparing total cell numbers of bax-bak deficient cells after three days exposure to a single dose of phenformin or metformin, as indicated (FIG. 4). Cell cultures were started at a density of 200,000 cells/ml.

K562 cells [9] = experiment: Oxygen consumption rate (electron transport activity), Clarke oxygen electrode; format: cell-based; details: 24 hours inhibitor treatment, relative to untreated, FIG. 6A
Experimental: (§5) Oxygen consumption by whole cells was measured as previously described. See Schumacker P T, Chandei N, Agusti A G. Oxygen conformance of cellular respiration in hepatocytes. Am J. Physiol. 1993; 265:L395-402. Briefly, inhibitor-treated (24 hours) K562 cells were resuspended at a concentration of 4 million cells/ml, and 1.4 mL of culture was transferred to a water-jacketed, airtight 3 ml chamber with a Clarke oxygen electrode, (Hansatech Instruments). Electron transport activity was manipulated through mitochondrial uncoupling with 10 uL of 1 mM Carbonyl cyanide 3-chlorophenylhydrazone (CCCP) (Sigma), and media supplementation of sodium Succinate (25 uL of 1M stock), after membrane permeabilization with […] (4 ul of 25 mg/ml stock). Relative ATP levels were assessed using the Invitrogen ATP determination kit (A22066), as per protocol, using 25,000 cell pellets. Cells were assayed after 24 hours of inhibitor treatment, as indicated, and results were expressed as Arbitrary Units/25000 cells.
Electron Transport Activity (ETC) activity, as determined by oxygen consumption rates, was assessed after treatment with each inhibitor, using a water-jacketed, airtight 3 ml chamber with a Clarke oxygen electrode, (Hansatech Instruments).

K562 cells [10] = experiment: Intracellular ATP levels (Invitrogen ATP determination kit); format: cell-based; details: K562, 24 hours of inhibitor treatment; 25,000 cell pellets; FIG. 6B
Experimental: as §5
Cells were assayed after 24 hours of inhibitor treatment, as indicated, and results were expressed as Arbitrary Units/25000 cells. Oxygen consumption correlated closely with relative levels of intracellular ATP.

c-myc = experiment: Western blot of BCR-Abl-induced c-myc expression in K562 cells after 24 hours of inhibitor treatment; format: cell-based; details: K562, 24 hours of inhibitor treatment; FIG. 9
Text: Western Blot Analysis. Cells were lysed in radioimmunoprecipitation (RIPA) buffer containing protease inhibitors (Complete Mini, Roche Applied Science), and protease inihibitors cocktails I and II (Sigma). BCA Protein Assay kit (Pierce Biotechnology) was used to assess and standardize protein concentrations. Proteins were resolved using a 4-12% NuPage Bis-Tris polyacrylamide gels (Invitrogen), and transferred to nitrocellulose membranes. Membranes were blocked using 5% nonfat dry skim milk and 0.1% Tween. Blots were subsequently probed with primary antibodies against: REDD-1 (Proteintech Group Inc), phospho-ser235/236 S6RP, total S6RP, phospho-thr172 AMPK, total-AMPK, phospho-tyr694/699 STAT5 (Upstate Biotechnology), total STAT5 (Upstate Biotechnology), phospho-thr202/tyr204 p42/44MAPK, total p42/44 MAPK, c-myc (Santa Cruz Biotechnologies), HIF-1a (Biosciences Pharmingen), and tubulin (Sigma). Unless otherwise indicated, all antibodies were obtained from Cell Signaling Technologies. Bands were subsequently detected using horseradish-peroxidase conjugated anti-mouse or anti-rabbit secondary antibodies (GE Healthcare Industries) and enhanced chemiluminescence detection kit (Amersham).
Expression levels of c-myc in inhibitor and untreated (U) control K562 cells was investigated by Western Blotting of cellular extracts prepared after 24 hours of inhibitor treatment.

K562 cells [11] = experiment: pO2, glucose and lactate in supernatants of K562 cells incubated in airtight tubes at 37° C.; format: cell-based; details: 1 to 6 hours, versus untreated, FIG. 10A
Experimental: as §4
Phenformin-treated and untreated K562 cells were transferred to airtight tubes and incubated at 37° C. for 1 to 6 hours. At one hour intervals, supernatants were analyzed for partial oxygen pressure (pO2), glucose, and lactate levels, while cells were collected for protein extract preparation. […] FIG. 10D. Tubulin serves as loading control.

HIF-1 = HIF-1 induction in K562 cells in airtight tubes (Western blot); format: cell-based; details: 37° C., FIG. 10D
Text: as §2
Daily cell culture supernatants were collected, and analyzed using the Nova Biomedical Bioprofile Flex Analyzer, which determined glucose, glutamine, lactate, and ammonia levels. […] At indicated time points, tubes were spun to pellet cells, and the glucose, lactate and pO2 content of supernatant was assessed by syringe sampling through an air-tight rubber stopper. […]
Phenformin-treated and untreated K562 cells were transferred to airtight tubes and incubated at 37° C. for 1 to 6 hours. At one hour intervals, supernatants were analyzed for partial oxygen pressure (pO2), glucose, and lactate levels, while cells were collected for protein extract preparation. […]

[12] = 1 mM phenformin, 750 nM imatinib

SMILES: Cc1ccc(NC(=O)c2ccc(CN3CCN(C)CC3)cc2)cc1Nc1nccc(-c2cccnc2)n1 [imatinib]
- cell viability (K562 cells [1]): induced a decrease in viability
- STAT5 phosphorylation (STAT5): decreased the levels of STAT5 phosphorylation
- Akt phosphorylation (Akt): left Akt phosphoylation intact
- glucose consumption (K562 cells [2]): minimal glucose consumption
- lactate production (K562 cells [2]): minimal glucose consumption and lactate production
- cell viability in glutamine-depleted medium (K562 cells [3]): significantly increased cell death upon glutamine depletion
- glutamine uptake (K562 cells [4]): failed to demonstrate substantial glutamine uptake
- doubling of cell number achieved before proliferation ceased (K562 cells [5]; 750 nM imatinib): approximately one
- time after which proliferation ceased (K562 cells [5]; 750 nM imatinib): 2 days
- effect on K562 proliferation (cell number) (K562 cells [5]; [12]): halted K562 proliferation

SMILES: CN(C)C(=N)NC(=N)N [metformin]
- inhibition of K562 proliferation (K562 cells [6]): relatively weak inhibitor of K562 proliferation
- risk / incidence of lactic acidosis [7]: significantly less than that observed with phenformin

SMILES: [H]/N=C(/N)N/C(=N/[H])NCCc1ccccc1 [phenformin]
- cell viability (K562 cells [1]): greater viability over the four days
- Akt phosphorylation (Akt): no suppression of Akt phosphorylation
- potency in inhibiting K562 proliferation relative to metformin (K562 cells [6]): 100 fold
- inhibition of K562 proliferation (K562 cells [6]): more potent inhibitor of K562 proliferation
- inhibition of proliferation of bax-bak deficient cells [8]: prevents proliferation of bax-bak deficient cells; also recorded: consistently more potent an inhibitor than metformin
- glucose consumption (K562 cells [2]): consumed glucose at rates similar to untreated cells
- lactate production (K562 cells [2]): accumulated lactate and consumed glucose at rates similar to untreated cells
- oxygen consumption (K562 cells [9]): most dramatically reduced oxygen consumption
- intracellular ATP levels (K562 cells [10]): most profoundly reduced
- cell viability in glucose-depleted medium (K562 cells [3]): significantly increased cell death upon glucose depletion
- cell viability in glutamine-depleted medium (K562 cells [3]): significantly increased cell death upon glutamine depletion
- glutamine uptake (K562 cells [4]): failed to demonstrate substantial glutamine uptake
- c-myc expression (c-myc): inhibited c-myc expression more effectively than rapamycin; also recorded: commensurate in efficacy with imatinib
- partial oxygen pressure (pO2) of the culture (K562 cells [11]): dramatically different partial oxygen pressures; also recorded: absence of hypoxia; also recorded: maintained an oxygen-rich environment
- HIF-1 induction (HIF-1): prevented HIF-1 induction; also recorded: prevents hypoxia and HIF-1 induction
- risk / incidence of lactic acidosis [7]: increased risk of lactic acidosis
- effect on K562 proliferation (cell number) (K562 cells [5]; [12]): halted K562 proliferation
- time after which no increase in cell number was observed (K562 cells [5]; 1 mM phenformin): 24 h
